Source: patent US20260274829A1, “NEW E3 UBIQUITIN LIGASE LIGAND, PROTEIN DEGRADATION AGENT AND USE THEREOF” (GLUETACS THERAPEUTICS (SHANGHAI) CO., LTD., priority 2023, published 2026)

Columns and labels:
Assay type in all cases: cell-based
WEE1 = target: T1, WEE1 (Homo sapiens, UniProt P30291+Q96SW2); assay: Western blot degradation of WEE1 in hPBMC
T1 construct: endogenous in cells; host or cells: hPBMC
Experimental: (§1) Conventional Western blot assay was performed to evaluate the effects of the compounds of the present disclosure on the expression of target proteins in cells.
(§2) • (1) Cell Seeding and Protein Harvesting: The selected cells were processed according to the cell seeding procedure and protein harvesting procedure in Table III-2.
(§3) • (2) To the collected supernatant, 5×SDS sample loading buffer was added, followed by denaturation at 95° C. for 5 minutes. The denatured samples were then separated by SDS-PAGE electrophoresis on a polyacrylamide gel. Proteins were transferred to a nitrocellulose membrane ([…] NC membrane), blocked with blocking buffer at room temperature for 1 hour, and subjected to antibody incubation and development procedures according to the antibody manufacturer's instructions (Cell Signaling Technology).
(§4) Half-Maximal Degradation Concentration value (the drug concentration required for degrading proteins by 50%, abbreviated as DC50) reads method: comparing the grayscale values of Western blot bands from drug-treated samples with those from blank DMSO-treated controls, and identifying the drug concentration range at which the grayscale value is half that of the DMSO-treated control bands.
(§5) DC50 values can be calculated using ImageJ software to measure grayscale values of Western blot bands from drug-treated samples. The concentration-response curve is fitted to estimate the drug concentration corresponding to half the grayscale value.
(§6) Target protein remaining (0%) refers to the percentage of target protein remaining in hPBMC cells after treatment with protein degrader compounds.
(§7) Calculation method for target protein remaining (0%): Use ImageJ software to measure grayscale values of Western blot bands from drug (protein degrader)-treated samples. The grayscale value of drug-treated bands is divided by that of internal control protein bands, and the resulting quotient is normalized to obtain the relative percentage of remaining target protein after protein degrader treatment.

IKZF1 = target: T2, IKZF1 (Homo sapiens, UniProt Q13422+Q96SW2); assay: Western blot degradation of IKZF1 in hPBMC
T2 construct: endogenous in cells; host or cells: hPBMC
Experimental: as §1, §2, §3, §4, §5, §6, §7

IKZF2 = target: T3, IKZF2 (Homo sapiens, UniProt Q96SW2+Q9UKS7); assay: Western blot degradation of IKZF2 in hPBMC
T3 construct: endogenous in cells; host or cells: hPBMC
T3 sequence (Q9UKS7 whole entry): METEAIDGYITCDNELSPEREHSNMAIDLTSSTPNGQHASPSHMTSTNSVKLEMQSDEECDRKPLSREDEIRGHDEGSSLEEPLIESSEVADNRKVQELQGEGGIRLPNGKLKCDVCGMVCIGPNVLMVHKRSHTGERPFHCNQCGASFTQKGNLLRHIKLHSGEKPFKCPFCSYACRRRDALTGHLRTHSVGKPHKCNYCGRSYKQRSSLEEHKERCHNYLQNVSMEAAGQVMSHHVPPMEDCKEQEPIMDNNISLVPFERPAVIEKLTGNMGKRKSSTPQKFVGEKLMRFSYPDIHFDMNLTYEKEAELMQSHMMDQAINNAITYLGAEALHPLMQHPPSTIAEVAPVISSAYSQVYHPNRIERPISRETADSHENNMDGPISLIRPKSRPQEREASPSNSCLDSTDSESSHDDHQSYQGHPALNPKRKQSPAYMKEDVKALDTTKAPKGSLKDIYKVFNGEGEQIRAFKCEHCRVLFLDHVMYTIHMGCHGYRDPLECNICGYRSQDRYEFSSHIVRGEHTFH
T3 sequence (Q96SW2 whole entry): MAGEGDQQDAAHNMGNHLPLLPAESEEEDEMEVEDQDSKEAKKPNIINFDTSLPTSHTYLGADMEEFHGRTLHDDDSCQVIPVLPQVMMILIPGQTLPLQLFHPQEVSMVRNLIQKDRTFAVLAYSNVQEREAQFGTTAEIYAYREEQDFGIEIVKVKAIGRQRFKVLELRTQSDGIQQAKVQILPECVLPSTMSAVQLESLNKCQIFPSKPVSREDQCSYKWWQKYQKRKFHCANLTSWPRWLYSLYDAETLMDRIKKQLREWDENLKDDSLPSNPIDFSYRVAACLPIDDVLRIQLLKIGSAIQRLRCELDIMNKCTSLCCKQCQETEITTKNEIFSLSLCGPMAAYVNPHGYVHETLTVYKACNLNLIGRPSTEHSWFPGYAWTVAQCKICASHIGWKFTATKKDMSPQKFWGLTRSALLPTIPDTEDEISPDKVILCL
T3 sequence (Q16531 whole entry partner): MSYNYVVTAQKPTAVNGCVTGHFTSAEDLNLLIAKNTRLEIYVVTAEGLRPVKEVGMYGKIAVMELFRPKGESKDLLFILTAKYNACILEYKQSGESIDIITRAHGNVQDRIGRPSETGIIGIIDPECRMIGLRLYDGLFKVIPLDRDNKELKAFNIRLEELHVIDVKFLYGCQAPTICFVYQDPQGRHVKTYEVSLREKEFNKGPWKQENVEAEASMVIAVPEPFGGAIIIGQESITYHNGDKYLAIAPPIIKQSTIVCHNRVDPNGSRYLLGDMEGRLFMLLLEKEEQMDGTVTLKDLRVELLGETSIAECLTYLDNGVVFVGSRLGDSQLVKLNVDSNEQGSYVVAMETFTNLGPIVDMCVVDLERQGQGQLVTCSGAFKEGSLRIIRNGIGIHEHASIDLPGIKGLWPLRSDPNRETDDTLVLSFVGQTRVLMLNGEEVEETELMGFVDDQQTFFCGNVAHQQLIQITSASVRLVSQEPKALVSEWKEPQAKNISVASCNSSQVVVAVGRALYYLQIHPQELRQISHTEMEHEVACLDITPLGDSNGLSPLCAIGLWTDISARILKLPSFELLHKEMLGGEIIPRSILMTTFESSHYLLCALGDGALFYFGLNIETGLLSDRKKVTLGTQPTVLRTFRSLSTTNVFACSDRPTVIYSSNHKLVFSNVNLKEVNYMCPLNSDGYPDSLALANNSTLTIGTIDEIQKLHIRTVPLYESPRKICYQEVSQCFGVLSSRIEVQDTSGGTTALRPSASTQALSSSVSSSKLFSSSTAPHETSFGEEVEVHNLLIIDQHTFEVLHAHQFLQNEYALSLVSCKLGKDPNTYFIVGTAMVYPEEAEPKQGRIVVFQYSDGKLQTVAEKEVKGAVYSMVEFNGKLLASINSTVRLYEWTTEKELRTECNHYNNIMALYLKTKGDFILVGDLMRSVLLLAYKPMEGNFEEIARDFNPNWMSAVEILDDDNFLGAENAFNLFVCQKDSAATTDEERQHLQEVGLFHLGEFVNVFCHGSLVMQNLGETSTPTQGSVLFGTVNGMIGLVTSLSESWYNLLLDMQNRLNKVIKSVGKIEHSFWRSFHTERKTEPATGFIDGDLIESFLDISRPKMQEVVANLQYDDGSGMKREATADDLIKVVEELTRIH
Experimental: as §1, §2, §3, §4, §5, §6, §7

IKZF3 = target: T4, IKZF3 (Homo sapiens, UniProt Q96SW2+Q9UKT9); assay: Western blot degradation of IKZF3 in hPBMC
T4 construct: endogenous in cells; host or cells: hPBMC
T4 sequence (Q9UKT9 whole entry): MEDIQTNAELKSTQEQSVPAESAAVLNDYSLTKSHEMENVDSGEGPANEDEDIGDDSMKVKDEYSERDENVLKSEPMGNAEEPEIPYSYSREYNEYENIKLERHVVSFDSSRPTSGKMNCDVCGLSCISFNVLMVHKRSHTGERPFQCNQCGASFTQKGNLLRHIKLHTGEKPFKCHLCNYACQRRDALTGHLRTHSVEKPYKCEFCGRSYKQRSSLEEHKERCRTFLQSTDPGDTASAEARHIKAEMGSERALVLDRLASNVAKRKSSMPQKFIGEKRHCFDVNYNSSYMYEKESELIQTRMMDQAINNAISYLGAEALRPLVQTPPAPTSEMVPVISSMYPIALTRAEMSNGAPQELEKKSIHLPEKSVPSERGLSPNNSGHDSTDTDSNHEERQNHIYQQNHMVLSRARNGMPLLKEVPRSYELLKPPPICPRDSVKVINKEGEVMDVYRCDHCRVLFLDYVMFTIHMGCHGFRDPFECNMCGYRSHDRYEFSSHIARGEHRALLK
T4 sequence (Q96SW2 whole entry): as the sequence (Q96SW2 whole entry) above
T4 sequence (Q16531 whole entry partner): as the sequence (Q16531 whole entry partner) above
Experimental: as §1, §2, §3, §4, §5, §6, §7

CK1a = target: T5, CK1a (Homo sapiens, UniProt P48729+Q96SW2); assay: Western blot degradation of CK1a in hPBMC
T5 construct: endogenous in cells; host or cells: hPBMC
T5 sequence (P48729 whole entry): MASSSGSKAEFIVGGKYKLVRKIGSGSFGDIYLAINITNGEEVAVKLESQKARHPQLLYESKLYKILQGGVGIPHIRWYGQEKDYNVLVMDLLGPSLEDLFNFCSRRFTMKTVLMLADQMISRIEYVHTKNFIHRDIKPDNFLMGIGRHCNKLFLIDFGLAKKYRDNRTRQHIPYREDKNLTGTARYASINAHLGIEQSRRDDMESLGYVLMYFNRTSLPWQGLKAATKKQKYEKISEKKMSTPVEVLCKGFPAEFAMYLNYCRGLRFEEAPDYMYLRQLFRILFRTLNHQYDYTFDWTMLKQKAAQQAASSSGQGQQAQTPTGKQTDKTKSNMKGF
T5 sequence (Q96SW2 whole entry): as the sequence (Q96SW2 whole entry) above
T5 sequence (Q16531 whole entry partner): as the sequence (Q16531 whole entry partner) above
Experimental: as §1, §2, §3, §4, §5, §6, §7

GSPT1 = target: T6, GSPT1 (Homo sapiens, UniProt P15170+Q96SW2); assay: Western blot degradation of GSPT1 in hPBMC
T6 construct: endogenous in cells; host or cells: hPBMC
T6 sequence (P15170 whole entry): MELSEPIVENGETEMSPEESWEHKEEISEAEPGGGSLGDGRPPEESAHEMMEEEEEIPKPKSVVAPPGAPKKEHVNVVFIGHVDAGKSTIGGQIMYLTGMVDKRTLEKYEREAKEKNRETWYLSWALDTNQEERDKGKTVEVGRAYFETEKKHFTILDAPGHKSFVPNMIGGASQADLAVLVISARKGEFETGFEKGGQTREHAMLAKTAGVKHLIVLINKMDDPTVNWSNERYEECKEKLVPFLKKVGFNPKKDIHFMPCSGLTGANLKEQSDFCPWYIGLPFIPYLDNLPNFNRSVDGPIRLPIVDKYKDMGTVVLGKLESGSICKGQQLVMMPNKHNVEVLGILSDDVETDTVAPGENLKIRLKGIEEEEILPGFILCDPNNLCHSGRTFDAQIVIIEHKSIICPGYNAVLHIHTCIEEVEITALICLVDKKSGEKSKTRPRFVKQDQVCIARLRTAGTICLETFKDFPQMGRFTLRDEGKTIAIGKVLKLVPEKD
T6 sequence (Q96SW2 whole entry): as the sequence (Q96SW2 whole entry) above
T6 sequence (Q16531 whole entry partner): as the sequence (Q16531 whole entry partner) above
Experimental: as §1, §2, §3, §4, §5, §6, §7

T1 sequence (P30291 whole entry): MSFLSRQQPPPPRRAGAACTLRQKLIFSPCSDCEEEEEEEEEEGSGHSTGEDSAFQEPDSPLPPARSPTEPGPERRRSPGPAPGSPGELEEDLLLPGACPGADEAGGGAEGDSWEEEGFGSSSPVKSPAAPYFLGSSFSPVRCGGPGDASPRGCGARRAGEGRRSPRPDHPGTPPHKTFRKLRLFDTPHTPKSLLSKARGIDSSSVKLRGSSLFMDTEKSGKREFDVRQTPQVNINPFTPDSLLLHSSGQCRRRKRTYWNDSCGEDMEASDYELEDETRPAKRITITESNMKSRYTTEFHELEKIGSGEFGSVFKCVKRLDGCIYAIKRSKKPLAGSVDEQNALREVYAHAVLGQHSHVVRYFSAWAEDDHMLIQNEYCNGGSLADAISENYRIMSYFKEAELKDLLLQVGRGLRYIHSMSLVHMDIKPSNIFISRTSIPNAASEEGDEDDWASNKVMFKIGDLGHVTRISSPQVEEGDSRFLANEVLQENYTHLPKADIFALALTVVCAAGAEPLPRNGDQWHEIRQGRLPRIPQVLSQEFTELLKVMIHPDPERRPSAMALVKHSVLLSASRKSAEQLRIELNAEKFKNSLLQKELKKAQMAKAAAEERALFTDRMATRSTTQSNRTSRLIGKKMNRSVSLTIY
T1 sequence (Q96SW2 whole entry): as the sequence (Q96SW2 whole entry) above
T1 sequence (Q16531 whole entry partner): as the sequence (Q16531 whole entry partner) above

Row | SMILES | Degradation of substrate protein WEE1 (substrate protein remaining %) (WEE1) | Degradation of substrate protein IKZF1 (substrate protein remaining %) (IKZF1) | Degradation of substrate protein IKZF2 (substrate protein remaining %) (IKZF2) | Degradation of substrate protein IKZF3 (substrate protein remaining %) (IKZF3) | Degradation of substrate protein CK1a (substrate protein remaining %) (CK1a) | Degradation of substrate protein GSPT1 (substrate protein remaining %) (GSPT1)
1 | O=C1CCC(c2ncccc2CO)C(=O)N1 (stereo not drawn) [GT-07370, 3-(3-(hydroxymethyl)pyridin-2-yl)piperidine-2,6-dione] | B (B is defined as substrate protein remaining % > 80%) | B (B is defined as substrate protein remaining % > 80%) | B (B is defined as substrate protein remaining % > 80%) | B (B is defined as substrate protein remaining % > 80%) | A (A is defined as 0% ≤ substrate protein remaining % ≤ 80%) | A (A is defined as 0% ≤ substrate protein remaining % ≤ 80%)
2 | O=C1CCC(c2ncc(CO)cc2F)C(=O)N1 (stereo not drawn) [GT-07443, 3-(3-fluoro-5-(hydroxymethyl)pyridin-2-yl)piperidine-2,6-dione] | A (A is defined as 0% ≤ substrate protein remaining % ≤ 80%) | A (A is defined as 0% ≤ substrate protein remaining % ≤ 80%) | A (A is defined as 0% ≤ substrate protein remaining % ≤ 80%) | B (B is defined as substrate protein remaining % > 80%) | A (A is defined as 0% ≤ substrate protein remaining % ≤ 80%) | A (A is defined as 0% ≤ substrate protein remaining % ≤ 80%)
3 | O=C1CCC(c2cc(CO)c(F)cn2)C(=O)N1 (stereo not drawn) [GT-07444, 3-(5-fluoro-4-(hydroxymethyl)pyridin-2-yl)piperidine-2,6-dione] | B (B is defined as substrate protein remaining % > 80%) | B (B is defined as substrate protein remaining % > 80%) | A (A is defined as 0% ≤ substrate protein remaining % ≤ 80%) | A (A is defined as 0% ≤ substrate protein remaining % ≤ 80%) | B (B is defined as substrate protein remaining % > 80%) | B (B is defined as substrate protein remaining % > 80%)
4 | CC(C)(C)[Si](C)(C)OCc1ccc(NC2CCC(=O)NC2=O)cn1 (stereo not drawn) [GT-07445, 3-((6-(((tert-butyldimethylsilyl)oxy)methyl)pyridin-3-yl)amino)piperidine-2,6-dione] | A (A is defined as 0% ≤ substrate protein remaining % ≤ 80%) | A (A is defined as 0% ≤ substrate protein remaining % ≤ 80%) | B (B is defined as substrate protein remaining % > 80%) | B (B is defined as substrate protein remaining % > 80%) | A (A is defined as 0% ≤ substrate protein remaining % ≤ 80%) | A (A is defined as 0% ≤ substrate protein remaining % ≤ 80%)
5 | O=C1CCC(Nc2ccc(CO)nc2)C(=O)N1 (stereo not drawn) [GT-07446, 3-((6-(hydroxymethyl)pyridin-3-yl)amino)piperidine-2,6-dione] | A (A is defined as 0% ≤ substrate protein remaining % ≤ 80%) | A (A is defined as 0% ≤ substrate protein remaining % ≤ 80%) | A (A is defined as 0% ≤ substrate protein remaining % ≤ 80%) | A (A is defined as 0% ≤ substrate protein remaining % ≤ 80%) | A (A is defined as 0% ≤ substrate protein remaining % ≤ 80%) | A (A is defined as 0% ≤ substrate protein remaining % ≤ 80%)
6 | O=Cc1cccnc1NC1CCC(=O)NC1=O (stereo not drawn) [GT-07447, 2-((2,6-dioxopiperidin-3-yl)amino)nicotinaldehyde] | A (A is defined as 0% ≤ substrate protein remaining % ≤ 80%) | A (A is defined as 0% ≤ substrate protein remaining % ≤ 80%) | A (A is defined as 0% ≤ substrate protein remaining % ≤ 80%) | A (A is defined as 0% ≤ substrate protein remaining % ≤ 80%) | A (A is defined as 0% ≤ substrate protein remaining % ≤ 80%) | A (A is defined as 0% ≤ substrate protein remaining % ≤ 80%)
7 | O=C1CCC(Nc2cncc(CO)c2)C(=O)N1 (stereo not drawn) [GT-07448, 3-((5-(hydroxymethyl)pyridin-3-yl)amino)piperidine-2,6-dione] | A (A is defined as 0% ≤ substrate protein remaining % ≤ 80%) | A (A is defined as 0% ≤ substrate protein remaining % ≤ 80%) | A (A is defined as 0% ≤ substrate protein remaining % ≤ 80%) | A (A is defined as 0% ≤ substrate protein remaining % ≤ 80%) | A (A is defined as 0% ≤ substrate protein remaining % ≤ 80%) | A (A is defined as 0% ≤ substrate protein remaining % ≤ 80%)
8 | CC(C)(C)[Si](C)(C)OCc1cncc(NC2CCC(=O)NC2=O)c1 (stereo not drawn) [GT-07449, 3-((5-(((tert-butyldimethylsilyl)oxy)methyl)pyridin-3-yl)amino)piperidine-2,6-dione] | B (B is defined as substrate protein remaining % > 80%) | B (B is defined as substrate protein remaining % > 80%) | A (A is defined as 0% ≤ substrate protein remaining % ≤ 80%) | B (B is defined as substrate protein remaining % > 80%) | B (B is defined as substrate protein remaining % > 80%) | B (B is defined as substrate protein remaining % > 80%)
9 | O=C1CCC(Nc2ccc(CO)cn2)C(=O)N1 (stereo not drawn) [GT-07551, 3-((5-(hydroxymethyl)pyridin-2-yl)amino)piperidine-2,6-dione] | A (A is defined as 0% ≤ substrate protein remaining % ≤ 80%) | B (B is defined as substrate protein remaining % > 80%) | A (A is defined as 0% ≤ substrate protein remaining % ≤ 80%) | B (B is defined as substrate protein remaining % > 80%) | B (B is defined as substrate protein remaining % > 80%) | B (B is defined as substrate protein remaining % > 80%)
10 | CC(C)(C)[Si](C)(C)OCc1ccc(NC2CCC(=O)NC2=O)nc1 (stereo not drawn) [GT-07552, 3-((5-(((tert-butyldimethylsilyl)oxy)methyl)pyridin-2-yl)amino)piperidine-2,6-dione] | B (B is defined as substrate protein remaining % > 80%) | B (B is defined as substrate protein remaining % > 80%) | A (A is defined as 0% ≤ substrate protein remaining % ≤ 80%) | B (B is defined as substrate protein remaining % > 80%) | B (B is defined as substrate protein remaining % > 80%) | B (B is defined as substrate protein remaining % > 80%)
